The assay addresses Envelope glycoprotein gp160 (Human immunodeficiency virus 1, UniProt Q6QLK5). Description: inhibitors of HIV fusion peptide binding, primary screen, biochemical, uHTS, fluorescence dequenching (AID 1986).

The source made the active and inactive calls. Rule as the data show it: actives have a measured IC50 and inactives only a lower limit.

Sequence of Envelope glycoprotein gp160 (Q6QLK5 whole entry, the tested form may be a part): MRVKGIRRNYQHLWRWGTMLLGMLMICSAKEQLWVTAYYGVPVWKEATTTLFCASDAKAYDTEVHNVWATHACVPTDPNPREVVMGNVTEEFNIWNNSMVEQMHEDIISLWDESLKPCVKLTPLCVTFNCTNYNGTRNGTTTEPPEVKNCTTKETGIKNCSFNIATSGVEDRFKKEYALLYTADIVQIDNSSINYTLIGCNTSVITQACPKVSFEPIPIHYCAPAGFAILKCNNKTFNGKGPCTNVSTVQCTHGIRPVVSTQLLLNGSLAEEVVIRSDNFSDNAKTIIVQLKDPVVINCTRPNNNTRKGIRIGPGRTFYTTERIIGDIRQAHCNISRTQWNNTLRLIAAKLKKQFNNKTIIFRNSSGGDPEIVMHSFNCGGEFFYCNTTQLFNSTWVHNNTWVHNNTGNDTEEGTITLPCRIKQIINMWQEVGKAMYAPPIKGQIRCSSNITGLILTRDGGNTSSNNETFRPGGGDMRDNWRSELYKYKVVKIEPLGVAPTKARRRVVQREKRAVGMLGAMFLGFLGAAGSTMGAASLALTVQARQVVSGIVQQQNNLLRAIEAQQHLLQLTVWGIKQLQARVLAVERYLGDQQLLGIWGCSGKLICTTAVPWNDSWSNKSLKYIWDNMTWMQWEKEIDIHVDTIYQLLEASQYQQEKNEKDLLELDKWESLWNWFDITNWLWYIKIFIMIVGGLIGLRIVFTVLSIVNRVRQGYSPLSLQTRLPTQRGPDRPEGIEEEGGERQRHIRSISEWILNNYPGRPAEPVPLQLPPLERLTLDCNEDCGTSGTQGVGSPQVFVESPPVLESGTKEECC

In general, IC50 refers to the concentration needed to halve the response being measured. As for `COc1cc(/C=C2\SC(NS(=O)(=O)c3ccc(C)cc3)=NC2=O)c([N+](=O)[O-])cc1OC`, the IC50 is 17.1 µM (active).
For the compound `O=C(O)CCn1cc(/C=C/C(=O)c2ccc(Cl)cc2)c(-c2cccc(Br)c2)n1`, the IC50 is 28 µM (active).

(Values after ChEMBL document CHEMBL1201862, “PubChem BioAssay data set” (2004).)
